The structures appear in SMILES notation.

Assay [1] deals with T1, M4 muscarinic receptor (Homo sapiens, UniProt P08173).
T1 construct: expressed in transfected cells; host or cells: CHO (M4-CHO)
T1 sequence (P08173 1-479): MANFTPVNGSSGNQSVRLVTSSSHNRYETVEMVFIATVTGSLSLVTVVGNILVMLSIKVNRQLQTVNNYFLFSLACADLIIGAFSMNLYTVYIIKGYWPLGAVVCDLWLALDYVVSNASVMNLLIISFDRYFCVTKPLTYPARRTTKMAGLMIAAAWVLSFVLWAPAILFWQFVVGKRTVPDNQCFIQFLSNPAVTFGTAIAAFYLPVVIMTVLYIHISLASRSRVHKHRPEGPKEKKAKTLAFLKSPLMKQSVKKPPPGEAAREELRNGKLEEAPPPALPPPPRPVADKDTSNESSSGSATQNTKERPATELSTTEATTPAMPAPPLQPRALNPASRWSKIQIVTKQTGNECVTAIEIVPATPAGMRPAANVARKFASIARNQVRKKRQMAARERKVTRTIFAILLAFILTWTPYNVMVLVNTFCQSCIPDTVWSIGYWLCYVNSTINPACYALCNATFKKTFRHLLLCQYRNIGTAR
The experiment in a line: Functional mobilization of intracellular calcium (FLIPR), M4-CHO cells. The class given is cell-based. The note with it: for Emax: 100% efficacy is the maximum response obtained with the Carbachol control; for M4 Activity: CHO cells expressing M4, calcium mobilization. The procedure: (§1) Functional Mobilization of Intracellular Calcium to Determine Muscarinic Receptor Activity:
(§2) CHO cells expressing muscarinic receptors (M1 to M5) are grown as monolayers in tissue culture flasks at 37° C. in a humidified atmosphere containing 5% CO2 and passaged every 3-5 days. The growth media is Dulbecco's modified eagles medium (DMEM, Gibco Cat#12430-054), containing 25 mM Hepes and supplemented with Fetal Bovine Serum (Hyclone, cat# SH30071.03), 0.1 mM of MEM non-essential amino acids (GIBCO, Cat#11140-050), 1 mM MEM Sodium Pyruvate (GIBCO Cat#11360-070) and 100 units/ml of Penicillin G and 100 μg/ml of Streptomycin (GIBCO Cat#15140-122). The recombinant muscarinic receptor cell lines are grown under antibiotic pressure with media containing 25 μg/ml zeocin and 500 μg/ml G418 (M1-CHO), 4 μg/ml puromycin, 50 μg/ml zeocin and 2.5 μg/ml blasticidin (M2 and M4-CHO) or 50 μg/ml zeocin and 4 μg/ml puromycin (M3 and M5-CHO).
(§3) Cells are harvested at 80-90% confluence using Versene (GIBCO Cat#15040-066), collected by centrifugation and seeded 18-24 hours prior to running the calcium assay at a density of 5,000-10,000 cells/well in […], clear-bottomed 384-well plates (BD Biocoat, poly-D-lysine, Cat#356663). The day of the experiment, the cells are washed with a plate washer (Bioteck Instrunents, ELX 405) using bath 1 buffer (140-mM NaCl, 4.5-mM KCl, 2-mM CaCl2, 1-mM MgCl2, 10-mM Hepes-Na, 10-mM Glucose, pH 7.4, with NaOH) containing 1 mM Probenecid. Next, the calcium dye Fluo-3 (25 μl/well of Fluo-3 AM at 4 μM, Molecular Probes F-1241, in Bath 1 buffer containing 1 mM Probenecid) is added to the 25 μl of Bath 1 remaining in each well after the plate wash and the dye is loaded at 37° C. in the tissue culture incubator for 60-90 min. The fluorescent dye is removed using the plate washer with Bath 1 containing 1 mM Probenecid, leaving 25 μl/well of this solution after the wash. Alternatively, cells can be loaded with the calcium indicator from Molecular Devices (Calcium 3 Assay Reagents, Cat # R7181) adding 5 μl of a 5× solution dye in Bath 1 containing 1 mM Probenecid (10 ml per dye flask cat# R7182 to generate a solution 20×) to 20 μl of the same buffer. After loading for 60 min, the experiment can be run without having to remove the dye.
(§4) Compounds are prepared at a 2× fold concentration in a 96-well plate (round bottom, Costar Corning cat#3656), by reconstituting the pre-spotted compounds in bath 1 containing 1 mM probenecid. The final concentration DMSO is 0.5%, and the amount of DMSO is normalized across the assay plate. To determine an agonist action of the compounds on muscarinic receptors, the reconstituted compounds are added (25 μl compound/well) to the cell assay plate (containing 25 μl/well) using the multi-channel robotic system of the FLIPR 3 Instrument (Molecular Devices, Sunnyvale, Calif.). To determine a functional inhibitory action of the compounds on muscarinic receptors, the reconstituted compounds are added (25 μl compound/well) to the assay plate and pre-incubated for 15 min prior to adding 25 μl of Carbachol at 3× the EC80 for each muscarinic subtype. Alternatively, the compounds can be co-applied simultaneously with the agonist. In both assay modes, the fluorescence is recorded for 60 sec (excitation wavelength is […] and emission wavelength 540 nm) using the FLIPR 3 instrument.
(§5) The potency, efficacy and selectivity of the muscarinic compounds were evaluated by screening the compound activity across the whole family (M1 to M5 cells). Compounds were also screened for activity on other proteins such as other GPCRs and ion channels to determine selectivity on M4 receptors.
(§6) Examples of activities and efficacies of the muscarinic compounds of formulae (I, Ia, Ib, Ic, Id, and Ie) on modulating M1 and M4 receptors are shown below in Table 4. […]
(In general: A change in cytosolic calcium serves as a functional read-out for many receptors and channels.)

For assay [2], the target named is T2, M1 muscarinic receptor (Homo sapiens, UniProt P11229).
T2 construct: expressed in transfected cells; host or cells: CHO (M1-CHO)
T2 sequence (P11229 1-460): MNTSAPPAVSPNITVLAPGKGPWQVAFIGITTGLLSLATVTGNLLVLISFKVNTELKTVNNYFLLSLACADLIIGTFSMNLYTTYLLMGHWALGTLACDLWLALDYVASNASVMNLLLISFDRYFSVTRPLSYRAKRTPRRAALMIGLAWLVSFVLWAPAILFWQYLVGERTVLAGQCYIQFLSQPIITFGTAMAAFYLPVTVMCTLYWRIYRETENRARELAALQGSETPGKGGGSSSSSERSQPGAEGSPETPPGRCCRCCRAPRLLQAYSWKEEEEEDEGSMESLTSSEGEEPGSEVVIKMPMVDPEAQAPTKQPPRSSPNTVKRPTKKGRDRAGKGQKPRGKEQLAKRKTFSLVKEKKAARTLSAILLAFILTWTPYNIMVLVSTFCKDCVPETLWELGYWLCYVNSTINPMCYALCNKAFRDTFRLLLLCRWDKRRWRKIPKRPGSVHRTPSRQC
The experiment in a line: Functional mobilization of intracellular calcium (FLIPR), M1-CHO cells. The following applies: for Emax: 100% efficacy is the maximum response obtained with the Carbachol control; for M1 Activity: CHO cells expressing M1, calcium mobilization. The class given is cell-based. As to the method: as §1, §2, §3, §4, §5, §6

For the compound `CN(C)C(=O)N[C@H]1CC2(CCN(C3CC4CC[C@@H]3C4)CC2)c2ccccc21` (stereo in doubt) [Compound No. 119, 3-((S)-1′-((1R,2S,4S)-bicyclo[2.2.1]heptan-2-yl)-2,3-dihydrospiro[indene-1,4′-piperidine]-3-yl)-1,1-dimethylurea], in assay [1], the maximal effect (Emax) (commonly the size of the effect at its maximum, as opposed to the concentration needed) lay within 25 to 100% and the “M4 Activity” value was “+++ (activity was measured to be less than 2.0 μM)”. In assay [2], the Emax is less than 25% and the “M1 Activity” value is recorded as “+ (activity was measured to be greater than 10.0 μM)”.
In the case of `CC#CCOC(=O)N1CCC(N2CCC3(CCN(C(=O)N(C)C)c4ccccc43)CC2)CC1` [Compound No. 5, but-2-ynyl 4-(1′-(dimethylcarbamoyl)-2′,3′-dihydro-1′H-spiro[piperidine-4,4′-quinoline]-1-yl)piperidine-1-carboxylate], in assay [1], the Emax was 25 to 100% and the “M4 Activity” value is “+++ (activity was measured to be less than 2.0 μM)”. In assay [2], the Emax lay within 25 to 100% and the “M1 Activity” value was “+++ (activity was measured to be less than 2.0 μM)”.
Take `Cc1cncc(N2CCC(N3CCC4(CCN(C(=O)N(C)C)c5ccccc54)CC3)CC2)n1` [Compound No. 9, N,N-dimethyl-1-(1-(6-methylpyrazin-2-yl)piperidin-4-yl)-2′,31-dihydrospiro[piperidine-4,4′-quinoline]-1′-carboxamide]: in assay [1], the Emax is 25 to 100% and the “M4 Activity” value was “+++ (activity was measured to be less than 2.0 μM)”. For the same compound, in assay [2], the Emax was in the range of 25 to 100% and the “M1 Activity” value is recorded as “+++ (activity was measured to be less than 2.0 μM)”.
For the compound `CCOC(=O)N1CCC(N2CCC3(CCN(C(C)=O)c4ccccc43)CC2)CC1` [Compound No. 11, ethyl 4-(1′-acetyl-2′,3′-dihydro-1′H-spiro[piperidine-4,4′-quinoline]-1-yl)piperidine-1-carboxylate], in assay [1], the maximum response (Emax) was more than 100% and the “M4 Activity” value is reported as “+++ (activity was measured to be less than 2.0 μM)”. In assay [2], the maximum response (Emax) is more than 100% and the “M1 Activity” value is on record as “+++ (activity was measured to be less than 2.0 μM)”.
`Cc1ncc(N2CCC(N3CCC4(CCN(C(=O)N(C)C)c5ccccc54)CC3)CC2)nc1C` [Compound No. 20, 1-(1-(5,6-dimethylpyrazin-2-yl)piperidin-4-yl)-N,N-dimethyl-2′,3′-dihydrospiro[piperidine-4,4′-quinoline]-1′-carboxamide]: in assay [1], the Emax fell in the range of 25 to 100% and the “M4 Activity” value was “+++ (activity was measured to be less than 2.0 μM)”. Also, in assay [2], the Emax is 25 to 100% and the “M1 Activity” value is “++ (activity was measured to be from 2.0 μM to 10.0 μM)”.
Turning to `C#CCOC(=O)N1C2CCC1CC(N1CCC3(CCN(C(=O)N(C)C)c4ccccc43)CC1)C2` (centres unmarked) [Compound No. 28, prop-2-ynyl 3-(1′-(dimethylcarbamoyl)-2′,3′-dihydro-1′H-spiro[piperidine-4,4′-quinoline]-1-yl)-8-azabicyclo[3.2.1]octane-8-carboxylate], in assay [1], the Emax lay in the range of 25 to 100% and the “M4 Activity” value was “+++ (activity was measured to be less than 2.0 μM)”. Also, in assay [2], the Emax is 25 to 100% and the “M1 Activity” value is given as “+++ (activity was measured to be less than 2.0 μM)”.
With `CCc1nsc(N2C3CCC2CC(N2CCC4(CCN(C(=O)N(C)C)c5ccccc54)CC2)C3)n1` (centres unmarked) [Compound No. 32, 1-(8-(3-ethyl-1,2,4-thiadiazol-5-yl)-8-azabicyclo[3.2.1]octan-3-yl)-N,N-dimethyl-2′,3′-dihydro-1′ H-spiro[piperidine-4,4′-quinoline]-1′-carboxamide], in assay [1], the maximal response (Emax) was in the range of 25 to 100% and the “M4 Activity” value is on record as “+++ (activity was measured to be less than 2.0 μM)”. Besides, in assay [2], the Emax lay in the range of 25 to 100% and the “M1 Activity” value is “+++ (activity was measured to be less than 2.0 μM)”.
Take `CCOC(=O)N1CCC(N2CCC3(CC2)CN(C(=O)N(C)C)c2ccccc23)CC1` [Compound No. 39, ethyl 4-(1-(dimethylcarbamoyl)spiro[indoline-3,4′-piperidine]-1′-yl)piperidine-1-carboxylate]: in assay [1], the Emax was 25 to 100% and the “M4 Activity” value is given as “+++ (activity was measured to be less than 2.0 μM)”. Also, in assay [2], the Emax was in the range of 25 to 100% and the “M1 Activity” value is listed as “+++ (activity was measured to be less than 2.0 μM)”.
Turning to `Cc1nsc(N2C3CCC2CC(N2CCC4(CC2)CN(C(=O)N(C)C)c2ccccc24)C3)n1` (centres unmarked) [Compound No. 65, N,N-dimethyl-1′-(8-(3-methyl-1,2,4-thiadiazol-5-yl)-8-azabicyclo[3.2.1]octan-3-yl)spiro[indoline-3,4′-piperidine]-1-carboxamide], in assay [1], the Emax was in the range of 25 to 100% and the “M4 Activity” value was “+++ (activity was measured to be less than 2.0 μM)”. For the same compound, in assay [2], the Emax lay in the range of 25 to 100% and the “M1 Activity” value is listed as “+++ (activity was measured to be less than 2.0 μM)”.
Turning to `CN(C)C(=O)N1CC2(CCN(C3CC4CCC(C3)N4c3cnccn3)CC2)c2ccccc21` (centres unmarked) [Compound No. 103, N,N-dimethyl-1′-(8-(pyrazin-2-yl)-8-azabicyclo[3.2.1]octan-3-yl)spiro[indoline-3,4′-piperidine]-1-carboxamide], in assay [1], the Emax is more than 100% and the “M4 Activity” value was “+++ (activity was measured to be less than 2.0 μM)”. Further, in assay [2], the Emax was 25 to 100% and the “M1 Activity” value was “+++ (activity was measured to be less than 2.0 μM)”.
For the compound `CCOC(=O)N1C2CCC1CC(N1CCC3(CCN(C(C)=O)c4ccccc43)CC1)C2` (centres unmarked) [compound 1], in assay [1], the Emax lay within 25 to 100% and the “M4 Activity” value is “+++ (activity was measured to be less than 2.0 μM)”. Further, in assay [2], the maximum response (Emax) lay in the range of 25 to 100% and the “M1 Activity” value is given as “+++ (activity was measured to be less than 2.0 μM)”.
